Data as given in PMC9916951, “Enzyme Inhibition-Based Assay to Estimate the Contribution of Formulants to the Effect of Commercial Pesticide Formulations” (International Journal of Molecular Sciences, 2023).
Like-named read-outs stand apart in the source and are kept apart here.

Columns and labels:
trypsin = target: T1, trypsin (Sus scrofa, UniProt P00761); assay: Single-enzyme assay system, trypsin activity (absorbance 253 nm); assay type: biochemical, porcine
T1 construct: purchased Sigma-Aldrich; host or cells: porcine pancreas
Protocol: (§1) The activities of enzyme assay systems were determined by measuring the absorbance of reaction mixture solutions or bioluminescence intensity in the solutions of the analyzed pesticide active ingredients or in the control solution.
Trypsin activity was analyzed in the reaction mixture containing 490 μL of the 0.1 M Clark and Lubs buffer pH 7.6, 11 mU of trypsin, 40 μL of 1 mM hydrochloric acid, and 460 μL of the 0.5 mM BAEE solution. The absorbances of the solutions were measured at 253 nm.
(§2) The effects of the active ingredients of pesticide and the solvents on the activity of the enzymes in the single-enzyme assay systems were determined as the relative activity according to the formula A = (At/Ac)∙100%, where Ac and At are the enzyme activity in the control and in the analyte solution, respectively.
(§3) The parameter IC50 was used to estimate the inhibitory effect of the active ingredients of pesticides on the enzyme activity and the bioluminescence intensity of a multi-enzyme assay system. It is the concentration of the active ingredient decreasing the enzyme activity by 50%.

[1] = target: T2, lactate dehydrogenase (LDH) (Oryctolagus cuniculus, UniProt P13491); assay: Single-enzyme assay system, LDH activity (absorbance 340 nm); assay type: biochemical, rabbit
T2 construct: purchased Sigma-Aldrich; host or cells: rabbit muscle
Protocol: as §1
(§4) The activities of single-enzyme assay systems with Red, ADH, and LDH were determined by changes in the absorbance at 340 nm.
The reaction mixture for the LDH-catalyzed reaction comprised 850 μL of the 0.05 M potassium-phosphate buffer pH 8.0, 9 U of LDH, 40 μL of the 3.25 mM NADH solution, 30 μL of the 69 mM pyruvate solution, and 50 μL of the analyte solution or the solvent solution (control).
as §2, §3

[2] = target: T3, alcohol dehydrogenase (ADH) (Saccharomyces cerevisiae, UniProt P00330); assay: Single-enzyme assay system, ADH activity (absorbance 340 nm); assay type: biochemical, baker's yeast
T3 construct: purchased Sigma-Aldrich; host or cells: baker’s yeast
Protocol: as §1, §4
The activity of the ADH was estimated by using the following reaction mixture: 1500 μL of the potassium-phosphate buffer 0.05 M pH 7.85, 750 mU of ADH, 40 μL of the 2.4 mM NAD^+ solution, and 25 μL of 95% ethanol. Distilled water and acetonitrile were used as control solutions.
as §2, §3

[3] = target: NAD(P)H:FMN-oxidoreductase + luciferase (Red + Luc); assay: Coupled enzyme assay system Red + Luc, luminescence intensity; assay type: biochemical, Vibrio fischeri; Photobacterium leiognathi; conditions: active ingredient alone (AIa)
Protocol: (§5) The activities of the multi-enzyme assay systems were determined from the values of the luminescence intensity in the presence of the control or the analyte solutions.
To analyze the effect of pesticides on the luminescence intensity of the Red + Luc coupled enzyme assay system, we used the following reaction mixture: 290 μL of the 0.05 M potassium-phosphate buffer pH 6.8; 5 μL of the Red + Luc mixture, preliminarily diluted in 5 mL of the buffer solution; 50 μL of the 0.0025% tetradecanal solution; 50 μL of the 0.5 mM FMN solution; 100 μL of the 0.4 mM NADH solution; and 10–200 μL of the analyte solution or the solvent solution used as a control. Ratio of Red to Luc in the reaction mixture was 1.2:1; and their concentrations were about 15 and 13 nM, respectively.
(§6) The effect of the pesticide active ingredients and solvents on the multi-enzyme reactions was estimated from the residual luminescence intensity calculated according to the formula I = (It/Ic)∙100%, where Ic and It are the average values of luminescence intensity in the presence of the control or analyte solution, respectively.
as §3

[4] = target: alcohol dehydrogenase + NAD(P)H:FMN-oxidoreductase + luciferase (ADH + Red + Luc); assay: Three-enzyme assay system ADH + Red + Luc, luminescence intensity; assay type: biochemical, baker's yeast; Vibrio fischeri; Photobacterium leiognathi; conditions: active ingredient alone (AIa)
Protocol: as §5
An analysis of the activity of the ADH + Red + Luc three-enzyme assay system was performed using the reaction mixture containing 350 μL of the 0.05 M potassium-phosphate buffer pH 6.9; 5 μL of 0.5 mg/mL ADH; 5 μL of the Red + Luc solution, preliminarily diluted in 5 mL of the buffer solution; 50 μL of the 0.0025% tetradecanal solution; 100 μL of the 0.4 mM NAD^+ solution; 10 μL of the 0.5 mM FMN solution; 5 μL of 95% ethanol; and 10–100 μL of the solvent (control) or the analyte solution. The proportions of ADH, Red, and Luc in the reaction mixture were 10:1.2:1, and their concentrations were about 120, 14, and 12 nM, respectively.
as §6, §3

[5] = target: lactate dehydrogenase + NAD(P)H:FMN-oxidoreductase + luciferase (LDH + Red + Luc); assay: Three-enzyme assay system LDH + Red + Luc, luminescence intensity; assay type: biochemical, rabbit; Vibrio fischeri; Photobacterium leiognathi; conditions: active ingredient alone (AIa)
Protocol: as §5
The reaction mixture for analyzing the luminescence intensity of the LDH + Red + Luc three-enzyme assay system consisted of 5 μL of 0.5 mg/mL LDH; 300 μL of the 0.05 M potassium-phosphate buffer pH 7.1; 10 μL of the 15 mM lactate solution; 50 μL of the 0.0025% tetradecanal solution; 10 μL of the Red + Luc solution, preliminarily diluted in 5 mL of the buffer solution; 10 μL of the 0.5 mM FMN solution; 100 μL of the 0.5 mM NAD^+ solution; and 10–50 μL of the analyte solution or the solvent solution (control). The proportions of LDH, Red, and Luc in the reaction mixture were 1.4:1.2:1, and their concentrations were about 36, 31, and 26 nM, respectively.
as §6, §3

[6] = target: T4, butyrylcholinesterase (BChE) (Equus caballus, UniProt P81908); assay: Single-enzyme assay system, BChE activity (Ellman's method, 412 nm); assay type: biochemical, equine
T4 construct: purchased Sigma-Aldrich; host or cells: equine serum
Protocol: as §1
To analyze BChE activity Ellman’s method was used. The absorbance of the solutions was measured at the 412 nm. We used the following reaction mixture: 800–850 μL of the 0.05 M potassium-phosphate buffer pH 8.0, 70 mU of BChE, 60 μL of 0.2 mM 5,5′-dithiobis (2-nitrobenzoic acid), 60 μL of 0.2 mM S-BCh-I, and 50–100 μL of the analyte solution or the solvent solution used as control.
as §2, §3

[7] = maximum residual levels of the active ingredient, Russian Federation; cited from earlier work
[8] = target: alkaline phosphatase (ALP) (Bos taurus, UniProt P19111); assay: Single-enzyme assay system, ALP activity (absorbance 405 nm); assay type: biochemical, bovine; conditions: 13.5 mg/L of fenvalerate (AIa)
Protocol: as §1
The activity of the ALP was analyzed in the following reaction mixture: 990 μL of the glycine NaOH buffer pH 9.6 containing 0.5 mM MgCl2, 1.2 mU of the ALP solution, 8 μL of the 33 mM […] solution, and 30–50 μL of the analyte solution. The absorbance of the solutions was measured at 405 nm.
as §2, §3

[9] = target: NAD(P)H:FMN-oxidoreductase (Red); assay: Single-enzyme assay system, Red activity (absorbance 340 nm); assay type: biochemical, Vibrio fischeri; conditions: active ingredient alone (AIa)
Protocol: as §1, §4
The reaction mixture for the Red-catalyzed reaction consisted of 750 μL of the 0.05 M potassium-phosphate buffer pH 7.25, 6 mU of Red, 100 μL of the 0.4 mM NADH solution, 10 μL of the 0.5 mM FMN solution, and 5–100 μL of the analyte solution or the solvent (control).
as §2, §3

[10] = tested on: Photobacterium phosphoreum; assay: Bioluminescence of luminous bacterium P. phosphoreum; assay type: cell-based
Protocol: Bacterium P. phosphoreum 1889 was provided by the museum at the IBP SB RAS [68]. P. phosphoreum cells were grown for 24 h on solid medium for marine bacteria. The cells were suspended in the sodium-phosphate buffer pH 7.4.
The effects of active ingredients of pesticides on the luminous bacterium were determined by changes in the bacterial luminescence intensity in the presence of the analyte relative to the control value. The solvent was used as a control solution. The reaction mixture for analyzing the luminescence intensity of luminous bacterium in the presence of control solution contained 450 μL of bacterial suspension and 5 μL of ethanol or 50 μL of distilled water, used as solvents for active ingredients of pesticides. A cuvette with the reaction mixture was placed into a luminometer, and luminescence intensity (Ic) was measured after 1 min. Then, another aliquot of bacterial suspension and 5 or 50 μL of a pesticide active ingredient solution were placed into a luminometer cuvette, and luminescence intensity (It) was measured after 1 min. The residual luminescence intensity was determined according to the formula I = (It/Ic) ∙ 100%.
The parameter EC50 was used to estimate the inhibitory effect of the active ingredients of pesticides on the bioluminescence of P. phosphoreum. […]

[11] = active ingredient alone (AIa), read-out: IC50, LDH (converted)
[12] = active ingredient alone (AIa), read-out: IC50, ADH (converted)
[13] = active ingredient alone (AIa), read-out: IC50, BChE (converted)

T1 sequence (P00761 9-231): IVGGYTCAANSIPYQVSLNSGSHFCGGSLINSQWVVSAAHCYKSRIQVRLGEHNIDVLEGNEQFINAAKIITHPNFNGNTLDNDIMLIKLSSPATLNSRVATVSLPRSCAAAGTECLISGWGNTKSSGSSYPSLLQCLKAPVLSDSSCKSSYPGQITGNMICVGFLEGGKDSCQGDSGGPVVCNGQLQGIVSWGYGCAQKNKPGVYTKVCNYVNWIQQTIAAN
T4 sequence (P81908 whole entry): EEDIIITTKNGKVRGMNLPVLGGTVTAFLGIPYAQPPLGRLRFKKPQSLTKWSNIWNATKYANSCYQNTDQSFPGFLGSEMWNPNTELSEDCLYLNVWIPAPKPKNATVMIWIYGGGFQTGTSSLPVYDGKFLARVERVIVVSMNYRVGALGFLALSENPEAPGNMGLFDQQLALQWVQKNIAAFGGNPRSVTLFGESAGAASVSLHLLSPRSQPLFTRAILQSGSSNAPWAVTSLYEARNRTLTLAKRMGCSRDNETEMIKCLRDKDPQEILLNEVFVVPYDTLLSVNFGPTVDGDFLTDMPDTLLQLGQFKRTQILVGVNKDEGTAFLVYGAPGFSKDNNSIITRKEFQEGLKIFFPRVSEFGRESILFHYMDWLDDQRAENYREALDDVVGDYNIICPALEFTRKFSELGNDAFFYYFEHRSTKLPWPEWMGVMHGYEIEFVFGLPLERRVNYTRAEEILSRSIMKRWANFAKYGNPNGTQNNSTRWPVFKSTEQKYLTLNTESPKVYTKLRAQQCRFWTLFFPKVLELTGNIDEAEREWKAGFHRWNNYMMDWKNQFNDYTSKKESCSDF
T3 sequence (P00330 whole entry): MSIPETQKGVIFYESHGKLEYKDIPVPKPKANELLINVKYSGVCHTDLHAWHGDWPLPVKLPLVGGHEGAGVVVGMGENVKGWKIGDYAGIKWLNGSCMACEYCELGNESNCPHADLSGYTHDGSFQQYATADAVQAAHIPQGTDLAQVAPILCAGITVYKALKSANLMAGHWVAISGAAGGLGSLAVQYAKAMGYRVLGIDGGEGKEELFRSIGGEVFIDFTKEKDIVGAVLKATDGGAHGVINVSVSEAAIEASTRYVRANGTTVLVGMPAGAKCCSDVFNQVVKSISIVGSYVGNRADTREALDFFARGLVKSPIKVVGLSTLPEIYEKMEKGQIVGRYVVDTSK
Chain of alkaline phosphatase (ALP) (P19111 20-506): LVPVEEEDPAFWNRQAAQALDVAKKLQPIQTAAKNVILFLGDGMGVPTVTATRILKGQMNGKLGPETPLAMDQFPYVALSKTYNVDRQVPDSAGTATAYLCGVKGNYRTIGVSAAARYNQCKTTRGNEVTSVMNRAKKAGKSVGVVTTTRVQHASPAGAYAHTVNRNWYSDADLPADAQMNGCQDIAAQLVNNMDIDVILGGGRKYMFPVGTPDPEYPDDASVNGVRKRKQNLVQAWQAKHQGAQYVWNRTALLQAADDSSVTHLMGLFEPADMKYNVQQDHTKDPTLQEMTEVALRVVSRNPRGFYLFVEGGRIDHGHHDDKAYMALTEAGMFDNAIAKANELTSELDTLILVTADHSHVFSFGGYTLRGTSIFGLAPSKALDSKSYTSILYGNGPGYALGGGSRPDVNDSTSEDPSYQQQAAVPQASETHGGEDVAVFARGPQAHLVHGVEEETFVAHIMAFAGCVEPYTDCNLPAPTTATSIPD

Structure (SMILES) | IC50 [1, 11] | IC50 [2, 12] | IC50, Red + Luc [3] | IC50, ADH + Red + Luc [4] | IC50, LDH + Red + Luc [5] | IC50 [6, 13] | MRL RUS [7] | also measured
CC1(C)C(C=C(Cl)Cl)C1C(=O)OC(C#N)c1cccc(Oc2ccccc2)c1 (stereo not shown) [Cypermethrin, cypermethrin] | 60.1 µM | 0.48 µM | 1.8 µg/mL | 0.2 µg/mL | 6.5 µg/mL |  |  | IC50, Trypsin (trypsin; active ingredient alone (AIa)): No inhibitory effects
CC1(C)[C@H](C(=O)O[C@H](C#N)c2cccc(Oc3ccccc3)c2)[C@@H]1C=C(Br)Br [Deltamethrin, deltamethrin] | 59.4 µM | 20.6 µM | 3.7 µg/mL | 1.0 µg/mL | 7.7 µg/mL | 198 µM | 0.01 to 0.3 mg/kg | 
CCOP(=S)(OCC)Oc1cc(C)nc(C(C)C)n1 [Diazinon, diazinon] |  |  | 2234 µg/mL | 11 µg/mL | 3351 µg/mL |  | 0.1 to 0.5 mg/kg | IC50, LDH ([1]; active ingredient alone (AIa)): No inhibitory effects; IC50 [2]: 47.6 µM
CC(C)C(C(=O)OC(C#N)c1cccc(Oc2ccccc2)c1)c1ccc(Cl)cc1 (stereo not shown) [Fenvalerate, fenvalerate] | 7.14 µM |  | 4.8 µg/mL | 1.6 µg/mL | 31.7 µg/mL | 286 µM |  | increase in trypsin activity (trypsin; 10 mg/L of fenvalerate (AIa)): 28%; increase in ALP activity [8]: 26%; IC50, ADH ([2]; active ingredient alone (AIa)): No inhibitory effects
O=C(O)CNCP(=O)(O)O [Glyphosate, glyphosate] |  | 30400 µM | 288 µg/mL | 3200 µg/mL | 935 µg/mL | 207 µM |  | IC50 (trypsin; active ingredient alone (AIa), read-out: IC50, Trypsin (converted)): 5690 µM; IC50 (trypsin; glyphosate as AIa, read-out: IC50, trypsin (Figure 2 legend) (converted)): 5680 µM; IC50, LDH ([1]; active ingredient alone (AIa)): no 50% inhibition; IC50, Red [9]: no 50% inhibition; concentration giving 50% inhibition of Red + Luc activity [3]: 0.3 g/L
O=[N+]([O-])NC1=NCCN1Cc1ccc(Cl)nc1 [Imidacloprid, imidacloprid] |  |  | – (No inhibitory effect of the AIa and AIf was detected in the tested concentration range.) | – (No inhibitory effect of the AIa and AIf was detected in the tested concentration range.) | – (No inhibitory effect of the AIa and AIf was detected in the tested concentration range.) |  | 0.1 to 1.0 mg/kg | EC50, P. phosphoreum bioluminescence ([10]; active ingredient alone (AIa), luminescence after 1 min): did not produce any detectable effect; EC20 (20% quenching of bacterial bioluminescence) ([10]; imidacloprid as AIa and as AIf): 50 µg/mL
CCOC(=O)CC(SP(=S)(OC)OC)C(=O)OCC (stereo not shown) [Malathion, malathion] |  |  |  |  |  |  | 0.05 to 1.0 mg/kg | IC50 [6]: 1820 µM; IC50 [1]: 1060 µM
